Earlier results on seven compounds are cited in patent EP1680106B1, “COMBINATION TREATMENT OF OBESITY INVOLVING 4,5-DIHYDRO-1H-PYRAZOLE DERIVATIVES HAVING CB1-ANTAGONISTIC ACTIVITY AND LIPASE INHIBITORS” (Solvay Pharmaceuticals GmbH, priority 2003, dated 2005).

For data set [1] the following is noted: atypical antipsychotics, follow-up studies.
For data set [2] the following is noted: healthy male volunteers, 5 days with meals; ATL-962 50 mg to 300 mg, orlistat 120 mg tid; placebo 1.4 (+/-1.0).
The subject of data set [3] is carragheenin-induced swelling. As to conditions: mice.

As for `Cc1nc2n(c(=O)c1CCN1CCC(c3noc4cc(F)ccc34)CC1)CCCC2` [Risperidone], the “weight gain with long-term treatment” value in data set [1] was “modest weight changes that are not dose related”.
As for `CN1CCN(C2=Nc3cc(Cl)ccc3Nc3ccccc32)CC1` [clozapine], the “weight gain with long-term treatment” value in data set [1] is reported as “largest weight gains”.
As for `Cc1cc2c(s1)Nc1ccccc1N=C2N1CCN(C)CC1` [olanzapine], the “weight gain with long-term treatment” value in data set [1] is recorded as “largest weight gains”.
Take `OCCOCCN1CCN(C2=Nc3ccccc3Sc3ccccc32)CC1` [quetiapine]: in data set [1], the “weight gain with long-term treatment” value is recorded as “smallest”.
As to `CCCCCCCCCCC[C@@H](C[C@@H]1OC(=O)[C@H]1CCCCCC)OC(=O)[C@H](CC(C)C)NC=O` [tetrahydrolipstatin, (2S,3S,5S)-5-((S)-2-4-methylvaleryloxy)-2-hexyl-3-hydroxy-hexadecanoic acid lactone], the average fat excreted in data set [2] was 5.6 (+/-3.8) g/day.
Turning to `O=C1Cc2cc(CCN3CCN(c4nsc5ccccc45)CC3)c(Cl)cc2N1` [ziprasidone], in data set [1], the “weight gain with long-term treatment” value is “smallest”.
For the compound Ebelactone B, the carragheenin-induced swelling entry in data set [3] was “reduces carragheenin-induced swelling”.
